Nc1ncnc2c1ncn2[C@@H]1O[C@H](COP(=O)(O)O)[C@@H](O)[C@H]1O
solubility (mole fraction)
Settings	in acetic acid	in ethanol	in methanol	in water
288.15 K	7.85e-05	5.3e-06	8.59e-06	–
288.2 K	–	–	–	0.000257
294.15 K	0.000122	5.61e-06	9.35e-06	–
294.2 K	–	–	–	0.000336
300.15 K	0.000186	6.75e-06	1.04e-05	–
300.2 K	–	–	–	0.000412
306.15 K	0.000276	7.73e-06	1.15e-05	–
306.2 K	–	–	–	0.000526
312.15 K	0.000395	9.24e-06	1.3e-05	–
312.2 K	–	–	–	0.000636
318.15 K	0.000564	1.06e-05	1.41e-05	–
318.2 K	–	–	–	0.000768
324.15 K	0.00075	1.24e-05	1.65e-05	–
324.2 K	–	–	–	0.000934
330.15 K	0.000967	1.54e-05	1.79e-05	–
